Test results taken from US12366579B2, “Sulfur-heterocycle exchange chemistry and uses thereof” (University of Virginia Patent Foundation, priority 2019, dated 2025).

Legend:
human DPP3 (hDPP3) = target: T1, human DPP3 (hDPP3) (Homo sapiens, UniProt Q9NY33); assay: Gel-based competitive chemical proteomic screen with HHS-482, recombinant hDPP3-HEK293T soluble proteomes; assay type: binding; details: 50 μM fragment, 37° C., 30 min
T1 construct: FLAG (C); host or cells: HEK293T, transient transfection; soluble proteome used unpurified
T1 sequence (Q9NY33 1-737): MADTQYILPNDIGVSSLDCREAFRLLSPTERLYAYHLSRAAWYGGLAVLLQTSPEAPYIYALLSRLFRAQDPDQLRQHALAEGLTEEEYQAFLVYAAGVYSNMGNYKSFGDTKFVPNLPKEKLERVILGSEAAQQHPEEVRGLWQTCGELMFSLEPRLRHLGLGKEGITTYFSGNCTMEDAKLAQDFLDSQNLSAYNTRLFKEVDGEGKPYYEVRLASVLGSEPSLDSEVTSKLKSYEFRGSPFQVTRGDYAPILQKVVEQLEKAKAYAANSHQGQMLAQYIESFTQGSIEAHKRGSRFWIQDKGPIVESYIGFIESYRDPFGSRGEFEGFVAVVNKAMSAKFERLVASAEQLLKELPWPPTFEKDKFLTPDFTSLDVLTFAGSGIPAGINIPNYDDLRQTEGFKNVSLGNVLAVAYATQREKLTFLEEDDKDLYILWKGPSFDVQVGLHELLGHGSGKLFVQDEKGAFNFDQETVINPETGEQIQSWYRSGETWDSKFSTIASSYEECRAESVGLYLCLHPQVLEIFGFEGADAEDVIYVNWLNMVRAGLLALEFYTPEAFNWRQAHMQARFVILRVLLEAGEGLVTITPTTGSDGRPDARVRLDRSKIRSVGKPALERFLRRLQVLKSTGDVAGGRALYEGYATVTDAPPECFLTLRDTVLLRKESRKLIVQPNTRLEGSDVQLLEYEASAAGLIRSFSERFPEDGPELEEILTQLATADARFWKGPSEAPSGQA
Experimental: Gel-Based Chemical Proteomic Assay
Cell pellets were lysed in PBS and fractionated (100,000×g, 45 min, 4° C.) to generate soluble and membrane fractions. Protein concentrations were determined using Bio-Rad DC protein assay (Bio-Rad Laboratories, Inc., Hercules, California, United States of America), and adjusted to 1 mgml^−1 in PBS. Proteome samples (49 μl aliquots) were treated with DMSO vehicle or indicated concentration of SuTEx fragment (1 μL, 50× stock in DMSO) for 30 min at 37° C. Samples were then treated with HHS-482 probe (1 μL, 2.5 mM stock in DMSO) for 30 min at 37° C. Probe labeled samples were conjugated to rhodamine-azide (1 μL, 1.25 mM stock; final concentration of 25 μM) by copper-catalyzed azide-alkyne cycloadditions (CuAAC) for 1 h at room temperature followed by SDS-PAGE and in-gel fluorescence scanning as previously described^57.

[1] = system: HEK293T soluble proteomes; assay: LC-MS chemical proteomics of probe-modified sites in cell proteomes; assay type: binding, human; details: for unique-modified tyrosine sites among 1,2,4-SuTEx probes: FIG. 4D; for tyrosine specificity, Y/K ratio of modified sites: LC-MS chemical proteomics
Experimental: Proteomes were diluted to 2.3 mg/mL in PBS and sample aliquots (432 μL) were treated with sulfonyl-triazole or -fluoride probes at the indicated concentrations (5 μL, 100× stock in DMSO), mixed gently and incubated for 1 h at room temperature. Probe-modified proteomes were subjected to CuAAC conjugation to desthiobiotin-PEG3-azide (10 μL of 10 mM stock in DMSO; final concentration of 200 μM) using TCEP (10 μL of fresh 50 mM stock in water; 1 mM final concentration), TBTA ligand (33 μL of a 1.7 mM 4:1 t-butanol/DMSO stock, 100 μM final concentration), and CuSO4 (10 μL of 50 mM stock, 1 mM final concentration). Samples were mixed by vortexing and then incubated for 1 h at room temperature. Excess reagents were removed by chloroform-methanol extraction as previously described^51. Protein pellets were re-suspended in 500 μL of 6M urea/25 mM ammonium bicarbonate followed by DTT reduction and IAA alkylation as previously described^5. Excess reagents were removed by chloroform/methanol extraction as described above, and the protein pellet was re-suspended in 500 μL of 25 mM ammonium bicarbonate and then digested to peptides using trypsin/Lys-C (7.5 μg in 15 μL of ammonium bicarbonate, sequencing grade from Promega, Madison, Wisconsin, United States of America) was added to the mixture and incubated for 3 hrs at 37° C. Probe-modified peptides were enriched by avidin affinity chromatography, eluted, and prepared for LC-MS analysis as previously described^51.
A top 10 data-dependent acquisition MS method was used.
Sulfonyl-probe modifications of tyrosine, lysine, and other amino acids were included as a variable (common) modification of +635.27374 Da. […] A Byonic score of 300 was applied for a more inclusive initial evaluation of the search results and thereby consider more possible probe-modified sites. MS1 and MS2 spectra corresponding to the highest-scoring tyrosine- and lysine (internal or non-C terminal)-modified sequences (˜50-100 peptides) were manually verified. […] Distinct peptides containing probe-modified amino acid residues (termed sites) were determined by identifying all unique razor protein and site combinations across all of the proteomes tested.
To compare amino acid residues modified by sulfonyl probes, protein and peptide identifications were accomplished as described above with variable (common) modification of +635.27374 Da on the following amino acid residues: cysteine, aspartic acid, glutamic acid, histidine, lysine, methionine, asparagine, glutamine, arginine, serine, threonine, tryptophan, and tyrosine. For these amino acid comparisons, carbamidomethylation (+57.021464 Da) of cysteines was searched as a variable/common modification to allow for the potential of probe modification on cysteines. Comparisons of probe-modified sites across all probes and cell lines tested were performed using the R package ggplot2 (online at tidyverse.org). Venn diagrams for comparisons were generated using the VennDiagram R package^52.
Proteomes were digested with trypsin protease and desthiobiotin-modified peptides enriched by avidin affinity chromatography, released, and analyzed by high-resolution liquid chromatography-mass spectrometry (LC-MS). Probe-modified peptide-spectrum matches (PSMs) that met a quality control confidence criteria of ≥300 Byonic score^31 and ≤5 ppm mass accuracy were selected for further manual evaluation.

[2] = HPLC assay for solution reactivity of sulfonyl triazole fragments with p-cresol; assay type: physicochemical; details: for time to completion of reaction with p-cresol: TMG 1.1 equivalents, on ice; for solution reactivity with p-cresol: HPLC assay, TMG base
Experimental: HPLC Assay for Profiling Solution Reactivity and Stability of Sulfonyl Triazole Fragments
The following reagents were prepared and stored on ice prior to use. 0.1 M solution of caffeine in acetonitrile, 1.0 M solution of n-butylamine, p-cresol, tetramethylguanidine […], 1 M HOAc in ACN and 10 mM solution of SuTEx fragment in DMF-ACN mixture (10:90, v/v). 500 μL of fragment solution was transferred to a dram vial on ice. To the mixture, 5.5 μL of TMG and 5.5 μL of p-cresol or n-butylamine was added and solutions were stirred on ice for 6 h. To monitor reactivity, 50 μL aliquots were removed at indicated time points and quenched with 10 μL of a 1:1 mixture of caffeine and HOAc. Samples were injected (1 μL) and analyzed by reverse-phase HPLC on a Shimadzu 1100 Series spectrometer (Shimadzu, Kyoto, Japan) with UV detection at 254 nm. Reaction progress was evaluated by monitoring consumption of starting material (SuTEx fragment) normalized to caffeine standard. Chromatographic separation was performed using a Phenomenex Kinetex C18 column (2.6 μm, 50×4.6 mm) (Phenomenex, Torrance, California, United States of America). Mobile phases A and B were composed of H2O+0.1% HOAc and ACN+0.1% HOAc, respectively. Samples were analyzed using the following analytical conditions: using a flow rate of 0.8 ml min^−1, the gradient was as follows: 0-0.5 min, 15% B; 0.5-6.5 min 85% B; 6.5-7 min 100% B: 7-8.5 min 100% B; 8.5-9 min 15% B; 9-9.8 min 15% B.

DM93 soluble proteomes = assay: Proteome-wide competitive chemical proteomics of SuTEx fragments vs HHS-482; assay type: binding, human; details: fragment 50 μM, 30 min, 37° C.
Experimental: Heavy and light proteomes (432 μl of each) were diluted to 2.3 mg ml^−1 in PBS and sample aliquots (432 μl) were treated with SuTEx fragment at the indicated concentrations (5 μl, 100× stock in DMSO), mixed gently and incubated for 30 min at 37° C. Samples were then treated with HHS-482 (5 μL, 5 mM stock in DMSO) for 30 min at 37° C. Probe-modified proteomes were conjugated to desthiobiotin-PEG3-azide followed by enrichment of probe-modified peptides for nano-electrospray ionization-LC-MS/MS analyses as previously described^57.
The chemical proteomic method for functional tyrosine profiling^72 was tailored to investigate AG/LG effects on SuTEx fragment reactivity in complex proteomes. In brief, isotopically light and heavy soluble proteomes from DM93 melanoma cells cultured by stable isotopic labeling by amino acids in cell culture (SILAC^80) media were used for quantitative liquid chromatography-mass spectrometry (LC-MS) studies. Light and heavy DM93 proteomes were treated with dimethyl sulfoxide (DMSO) vehicle or SuTEx fragment (50 μM, 30 min, 37° C.), respectively, followed by labeling with the tyrosine-reactive probe HHS-482 described hereinabove (50 μM, 30 min, 37° C.) and copper-catalyzed azide-alkyne cycloaddition (CuAAC) conjugation of a desthiobiotin-azide enrichment tag. Proteomes were digested with trypsin protease, HHS-482-modified peptides enriched by avidin chromatography and analyzed by high-resolution LC-MS/MS and bioinformatics as described hereinabove.
To evaluate substituent effects on proteome activity, reactivity profiles of each respective SuTEx fragment were compared across >1500 total distinct HHS-482-modified tyrosine sites from >650 detected proteins. Fragments were screened across independent biological replicates (n=2-3) and high-quality tyrosine site annotations were identified by detection in at least a single biological replicate from each fragment dataset, probe-specific enrichment (HHS-482 probe/DMSO SILAC ratio (SR)>5), and quality control confidence criteria of ≥300 Byonic score^31, […] protein false discovery rate (FDR), and ≤5 ppm mass accuracy in order to minimize the potential for false positives^72. SILAC ratios (SR) from competitive studies (Light-DMSO/Heavy-fragment) were used to identify fragment-competed tyrosine residues as sites showing >75% reduction in enrichment by HHS-482 compared with DMSO vehicle control (i.e. liganded tyrosines, SR>4). In total, 305 liganded tyrosines on 213 distinct proteins were identified, corresponding to ˜30% and ˜44% of total quantified tyrosines and proteins, respectively. […]

O=S(=O)(c1ccc(-c2ccccc2)cc1)n1cnc(-c2ccncc2)n1 [JWB202, 4-(1-([1,1′-Biphenyl]-4-ylsulfonyl)-1H-1,2,4-triazol-3-yl)pyridine]
blockade of DPP3 probe (HHS-482) labeling (human DPP3 (hDPP3)): ~50%

C#CCNC(=O)c1ccc(S(=O)(=O)n2cnc(-c3ccc(F)cc3)n2)cc1 [HHS-483, 4-((3-(4-Fluorophenyl)-1H-1,2,4-triazol-1-yl)sulfonyl)-N-(prop-2-yn-1-yl)benzamide]
proteome reactivity and tyrosine specificity compared with HHS-481 ([1]; FIG. 4A): comparable reactivity and slightly lowered tyrosine specificity | unique-modified tyrosine sites among 1,2,4-SuTEx probes [1]: 433 sites

C#CCNC(=O)c1ccc(S(=O)(=O)n2cnc(-c3ccc(OC)cc3)n2)cc1 [HHS-482, 4-((3-(4-Methoxyphenyl)-1H-1,2,4-triazol-1-yl)sulfonyl)-N-(prop-2-yn-1-yl)benzamide]
total number of probe-modified sites (Y and K combined) ([1]; FIG. 4A): ~3,000 sites | unique-modified tyrosine sites among 1,2,4-SuTEx probes [1]: 112 sites | tyrosine specificity, Y/K ratio of modified sites ([1]; FIG. 4A): ~5 | fraction of probe-modified residues/peptides assigned to tyrosines ([1]; high confidence sites): ~75%

COc1ccc(-c2ncn(S(=O)(=O)c3ccc(C#N)cc3)n2)cc1 [JWB137, 4-((3-(4-Methoxyphenyl)-1H-1,2,4-triazol-1-yl)sulfonyl)benzonitrile]
time to completion of reaction with p-cresol [2]: ~5 min

O=S(=O)(c1ccc(F)cc1)n1cnc(-c2ccc(C(F)(F)F)cc2)n1 [JWB150, 1-((4-Fluorophenyl)sulfonyl)-3-(4-(trifluoromethyl)phenyl)-1H-1,2,4-triazole]
liganded tyrosine frequency (SR>4) (DM93 soluble proteomes): > 25% | competition against recombinant DPP3 (human DPP3 (hDPP3); also substantial proteome cross-reactivity): potent competition | solution reactivity with p-cresol [2]: comparable reaction

COc1ccc(-c2ncn(S(=O)(=O)c3ccc(OC)cc3)n2)cc1 [JWB136, 3-(4-Methoxyphenyl)-1-((4-methoxyphenyl)sulfonyl)-1H-1,2,4-triazole]
solution reactivity with p-cresol [2]: incomplete reaction

C#CCNC(=O)c1ccc(S(=O)(=O)n2cnc(-c3ccccc3)n2)cc1 [HHS-481, 4-((3-Phenyl-1H-1,2,4-triazol-1-yl)sulfonyl)-N-(prop-2-yn-1-yl)benzamide]
total number of probe-modified sites (Y and K combined) ([1]; FIG. 4A): ~4,000 sites | unique-modified tyrosine sites among 1,2,4-SuTEx probes [1]: 445 sites | tyrosine specificity, Y/K ratio of modified sites ([1]; FIG. 4A): 3.5

COc1ccc(-c2ncn(S(=O)(=O)c3ccc(F)cc3)n2)cc1 [JWB135, 1-((4-Fluorophenyl)sulfonyl)-3-(4-methoxyphenyl)-1H-1,2,4-triazole]
solution reactivity with p-cresol [2]: attenuated reactivity

COc1ccc(-c2ncn(S(=O)(=O)c3cccnc3)n2)cc1 [JWB141, 3-((3-(4-Methoxyphenyl)-1H-1,2,4-triazol-1-yl)sulfonyl)pyridine]
time to completion of reaction with p-cresol [2]: ~30 min
